Test results published in US4868299A, “Antibacterially active pyrido-benzothiazine derivatives with long-term action” (Mediolanum Farmaceutici Srl, priority 1986, dated 1989).
≈ marks a conversion by molar mass, not a printed value. Like-named read-outs stand apart in the source and are kept apart here.

Key:
Test in all cases: in-vitro antibacterial activity, MIC by agar dilution (multipoint inoculator)
Assay type in all cases: cell-based
Enterobacter 2653 = settings: for MIC: read-out: Minimum Inhibiting Concentration (MIC)
Method: (§1) The antibacterial activity of the compounds according to the invention was determined "in vitro" on pathogenic strains of recent clinical isolation by testing agar dilutions using a multipoint inoculator (Denley Techn. Ltd., England).
(§2) The culture medium used is isosensitest agar (Oxoid), in a quantity of 20 ml in a Petri capsule. The compounds to be tested were dissolved at various dilutions and incorporated in agar.
(§3) The bacterial inoculum, originating from an overnight broth and containing 10^5 colony-forming units per point, was inoculated by a multipoint inoculator. The bacterial growth was evaluated after 18 hours of incubation at 37° C.
(§4) For comparison purposes, the results relative to compound (XIII) and to nalidixic acid are also reported.

Proteus 25 = settings: for MIC: read-out: Minimum Inhibiting Concentration (MIC)
Method: as §1, §2, §3, §4

Serratia 9 = settings: for MIC: read-out: Minimum Inhibiting Concentration (MIC)
Method: as §1, §2, §3, §4

Citrobacter 118 = settings: for MIC: read-out: Minimum Inhibiting Concentration (MIC)
Method: as §1, §2, §3, §4

Proteus 966 = settings: for MIC: read-out: Minimum Inhibiting Concentration (MIC)
Method: as §1, §2, §3, §4

Staphylococcus 29 = settings: for MIC: read-out: Minimum Inhibiting Concentration (MIC)
Method: as §1, §2, §3, §4

Staphylococcus 7 = settings: for MIC: read-out: Minimum Inhibiting Concentration (MIC)
Method: as §1, §2, §3, §4

Escherichia 963 = settings: for MIC: read-out: Minimum Inhibiting Concentration (MIC)
Method: as §1, §2, §3, §4

Klebsiella 4 = settings: for MIC: read-out: Minimum Inhibiting Concentration (MIC)
Method: as §1, §2, §3, §4

Pseudomonas 19 = settings: for MIC: read-out: Minimum Inhibiting Concentration (MIC)
Method: as §1, §2, §3, §4

Citrobacter 120 = settings: for MIC: read-out: Minimum Inhibiting Concentration (MIC)
Method: as §1, §2, §3, §4

Escherichia 15 = settings: 18 hours at 37° C, read-out: Minimum Inhibiting Concentration (MIC)
Method: as §1, §2, §3, §4

Enterobacter 041 = settings: for MIC: read-out: Minimum Inhibiting Concentration (MIC)
Method: as §1, §2, §3, §4

Pseudomonas 22437 = settings: 18 hours at 37° C; for MIC: read-out: Minimum Inhibiting Concentration (MIC)
Method: as §1, §2, §3, §4

Serratia 10 = settings: 18 hours at 37° C, read-out: Minimum Inhibiting Concentration (MIC)
Method: as §1, §2, §3, §4

[1] = Enterobacter 2653, 18 hours at 37° C
[2] = Citrobacter 118, 18 hours at 37° C
[3] = Staphylococcus 29, 18 hours at 37° C
[4] = Staphylococcus 7, 18 hours at 37° C
[5] = Escherichia 963, 18 hours at 37° C
[6] = Klebsiella 4, 18 hours at 37° C
[7] = Pseudomonas 19, 18 hours at 37° C
[8] = Citrobacter 120, 18 hours at 37° C
[9] = Enterobacter 041, 18 hours at 37° C

Compound: CCn1cc(C(=O)O)c(=O)c2ccc(C)nc21 [NALIDIXIC ACID, nalidixic acid, reference compound]
- MIC (Enterobacter 2653; Enterobacter, 2653, 18 h): 1.56 µg/mL (≈ 6.72 µM)
- MIC (Proteus 25; 18 h): 12.5 µg/mL (≈ 53.8 µM)
- MIC (Serratia 9; Serratia, 9, 18 h): > 25 µg/mL
- MIC (Citrobacter 118; Citrobacter, 118, 18 h): 12.5 µg/mL (≈ 53.8 µM)
- MIC (Proteus 966; 18 h): > 25 µg/mL
- MIC (Staphylococcus 29; Staphylococcus, 29, 18 h): > 25 µg/mL
- MIC (Staphylococcus 7; Staphylococcus, 7, 18 h): > 25 µg/mL
- MIC (Escherichia 963; Escherichia, 963, 18 h): > 25 µg/mL
- MIC (Klebsiella 4; Klebsiella, 4, 18 h): 3.12 µg/mL (≈ 13.4 µM)
- MIC (Pseudomonas 19; Pseudomonas, 19, 18 h): > 25 µg/mL
- MIC (Citrobacter 120; Citrobacter, 120, 18 h): 12.5 µg/mL (≈ 53.8 µM)
- MIC (Escherichia 15): 3.12 µg/mL (≈ 13.4 µM)
- MIC (Enterobacter 041; Enterobacter, 041, 18 h): 3.12 µg/mL (≈ 13.4 µM)
- MIC (Pseudomonas 22437): > 25 µg/mL

Compound: CC1Cn2cc(C(=O)O)c(=O)c3cc(F)c(Cl)c(c32)S1 (stereo not drawn) [reference compound]
- MIC (Enterobacter 2653; [1]): 0.12 µg/mL (≈ 0.382 µM)
- MIC (Proteus 25; Proteus 25, 18 hours at 37° C): > 32 µg/mL
- MIC (Serratia 9; Serratia 9, 18 hours at 37° C): > 32 µg/mL
- MIC (Citrobacter 118; [2]): 1 µg/mL (≈ 3.19 µM)
- MIC (Proteus 966; Proteus 966, 18 hours at 37° C): > 32 µg/mL
- MIC (Staphylococcus 29; [3]): 0.12 µg/mL (≈ 0.382 µM)
- MIC (Staphylococcus 7; [4]): 0.12 µg/mL (≈ 0.382 µM)
- MIC (Serratia 10): 0.25 µg/mL (≈ 0.797 µM)
- MIC (Escherichia 963; [5]): 16 µg/mL (≈ 51 µM)
- MIC (Klebsiella 4; [6]): 0.12 µg/mL (≈ 0.382 µM)
- MIC (Pseudomonas 19; [7]): > 32 µg/mL
- MIC (Citrobacter 120; [8]): > 32 µg/mL
- MIC (Escherichia 15): 0.25 µg/mL (≈ 0.797 µM)
- MIC (Enterobacter 041; [9]): 0.12 µg/mL (≈ 0.382 µM)
- MIC (Pseudomonas 22437): > 32 µg/mL

Compound: ethyl 9-fluoro-10-chloro-2-methyl-7-oxo-2,3-dihydro-7H-pyrido[1,2,3-de][1,4]benzothiazine-1-sulphoxide-6-carboxylate [(II)]
- Minimum Inhibiting Concentration (MIC) (Enterobacter 2653; [1]): 0.25 µg/mL
- Minimum Inhibiting Concentration (MIC) (Proteus 25; Proteus 25, 18 hours at 37° C): 4 µg/mL
- Minimum Inhibiting Concentration (MIC) (Serratia 9; Serratia 9, 18 hours at 37° C): 8 µg/mL
- Minimum Inhibiting Concentration (MIC) (Citrobacter 118; [2]): 0.5 µg/mL
- Minimum Inhibiting Concentration (MIC) (Proteus 966; Proteus 966, 18 hours at 37° C): 4 µg/mL
- Minimum Inhibiting Concentration (MIC) (Staphylococcus 29; [3]): 1 µg/mL
- Minimum Inhibiting Concentration (MIC) (Staphylococcus 7; [4]): 1 µg/mL
- Minimum Inhibiting Concentration (MIC) (Escherichia 963; [5]): 2 µg/mL
- Minimum Inhibiting Concentration (MIC) (Klebsiella 4; [6]): 0.25 µg/mL
- Minimum Inhibiting Concentration (MIC) (Pseudomonas 19; [7]): 16 µg/mL
- Minimum Inhibiting Concentration (MIC) (Citrobacter 120; [8]): 0.5 µg/mL
- Minimum Inhibiting Concentration (MIC) (Enterobacter 041; [9]): 0.12 µg/mL
- Minimum Inhibiting Concentration (MIC) (Pseudomonas 22437): 16 µg/mL
